Results published in publication PMC3992280 (Biochimica et biophysica acta, 2014).
≈ marks a conversion by molar mass, not a printed value. Like-named read-outs stand apart in the source and are kept apart here.

Columns and labels:
[1] = tested on: Mycobacterium smegmatis strain RHS 234; type: cell-based; conditions: Mycolicibacterium smegmatis, RHS234, 120 h
[2] = tested on: Mycobacterium smegmatis strain mc^2155; assay: microbe, parasite or virus in culture; type: cell-based; conditions: for MIC: Mycolicibacterium smegmatis, MC^2155, 120 h; for resistance factor R (MICwt/MICmutant): mc^2155 versus RHS 234
[3] = Autoxidation of rifamycins in phosphate buffer; type: physicochemical; conditions: for spectral changes under autoxidizing conditions: phosphate buffer pH 7.3, trace metals, up to 24 h
serum albumin = conditions: cited from earlier work
[4] = in vivo; cited from earlier work
CYP3A4 = conditions: cited from earlier work
tear lipocalin [5] = target: T1, tear lipocalin (Homo sapiens, UniProt P31025); assay: Rifamycin binding to tear lipocalin; conditions: increase in binding affinity to tear lipocalin
[6] = in vivo; cited from earlier work; remark: listed apart in the source
[7] = monitored at 475 nm; cited from earlier work
tear lipocalin [8] = target: T1, tear lipocalin; conditions: read-out: Kd for tear lipocalin; known dissociation constant; cited from earlier work
tear lipocalin [9] = target: T1, tear lipocalin; assay: Protection from oxidation of rifamycins by tear lipocalin; type: physicochemical; conditions: tear lipocalin 100 μM; for oxidation by K3Fe(CN)6 after initial protection with tear lipocalin: K3Fe(CN)6 90 μM added after 180 min; for duration of protection from autoxidation by tear lipocalin: drug 15 μM, pH 7.3
[10] = tested on: Mycobacterium tuberculosis; conditions: M. tuberculosis; cited from earlier work
Staphylococcus aureus = conditions: in mice; cited from earlier work

T1 sequence (P31025 19-176): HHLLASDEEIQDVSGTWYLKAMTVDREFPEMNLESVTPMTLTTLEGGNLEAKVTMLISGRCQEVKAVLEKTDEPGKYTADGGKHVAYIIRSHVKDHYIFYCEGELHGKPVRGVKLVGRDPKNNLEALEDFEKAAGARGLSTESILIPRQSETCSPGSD

SMILES | MIC [1] | MIC [2] | spectral changes under autoxidizing conditions [3] | oxidation by K3Fe(CN)6 after initial protection with tear lipocalin (tear lipocalin [9]) | duration of protection from autoxidation by tear lipocalin (tear lipocalin [9]) | other results
CO[C@H]1/C=C/O[C@@]2(C)Oc3c(C)c(O)c4c(c3C2=O)C2=NC3(CCN(CC(C)C)CC3)NC2=C(NC(=O)/C(C)=C\C=C\[C@H](C)[C@H](O)[C@@H](C)[C@@H](O)[C@@H](C)[C@H](OC(C)=O)[C@@H]1C)C4=O [Rifabutin] | 0.07 µM (≈ 0.0593 µg/mL) | 0.3 µM (≈ 0.254 µg/mL) | did not show spectral changes under autoxidizing conditions |  |  | 
CO[C@H]1/C=C/O[C@@]2(C)Oc3c(C)c(O)c4c(=O)c(c5oc6cc(N7CCN(CC(C)C)CC7)cc(O)c6nc-5c4c3C2=O)NC(=O)/C(C)=C\C=C\[C@H](C)[C@H](O)[C@@H](C)[C@@H](O)[C@@H](C)[C@H](OC(C)=O)[C@@H]1C [Rifalazil] | < 0.06 µM | 0.13 µM (≈ 0.122 µg/mL) | did not show spectral changes under autoxidizing conditions |  |  | bound to serum albumin (serum albumin; in the circulation of animals): 99%; side effects [4]: transient flue-symptoms, neutropenia, and thrombocytopenia; induction of CYP3A4 (CYP3A4): Notably lacking; mycobactericidal activity relative to rifampin [2]: 16 times; resistance factor R (MICwt/MICmutant) [2]: 2; resistance factor R (MICwt/MICmutant) ([2]; listed as rifalazil): ≈ 2; free energy change of binding, rifalazil over rifampin (tear lipocalin [5]): about 2.4 kcal/mole; evidence of hepatotoxicity [6]: Notably lacking
CO[C@H]1/C=C/O[C@@]2(C)Oc3c(C)c(O)c4c(O)c(c(/C=N/N5CCN(C)CC5)c(O)c4c3C2=O)NC(=O)/C(C)=C\C=C\[C@H](C)[C@H](O)[C@@H](C)[C@@H](O)[C@@H](C)[C@H](OC(C)=O)[C@@H]1C [Rifampin] | 0.3 µM (≈ 0.247 µg/mL) | 2.43 µM (≈ 2 µg/mL) | show spectral changes under autoxidizing conditions | rapidly oxidized | at least 3 h | spectral changes of autoxidation, completeness [7]: nearly complete after 24 h; Kd (tear lipocalin [8]): 128 µM; bound to serum albumin (serum albumin): 80-85%
CO[C@H]1/C=C/O[C@@]2(C)Oc3c(C)c(O)c4c(O)c(cc(O)c4c3C2=O)NC(=O)/C(C)=C\C=C\[C@H](C)[C@H](O)[C@@H](C)[C@@H](O)[C@@H](C)[C@H](OC(C)=O)[C@@H]1C [Rifamycin SV] | 0.69 µM (≈ 0.481 µg/mL) | < 1.38 µM | show spectral changes under autoxidizing conditions | appeared better protected | at least 3 h | MIC [10]: .05 µg/mL (≈ 0.0717 µM); fraction oxidized ([3]; within 30 minutes): less than 10%
CO[C@H]1/C=C/O[C@@]2(C)Oc3c(C)c(O)c4c(c3C2=O)C(=O)C=C(NC(=O)/C(C)=C\C=C\[C@H](C)[C@H](O)[C@@H](C)[C@@H](O)[C@@H](C)[C@H](OC(C)=O)[C@@H]1C)C4=O [Rifamycin S] |  |  |  |  |  | ED50 compared with rifamycin SV (Staphylococcus aureus): higher ED50, than rifamycin SV; MIC [10]: .05 µg/mL (≈ 0.0719 µM)
CO[C@H]1/C=C/O[C@@]2(C)Oc3c(C)c(O)c4c(O)c(c(/C=N/N5CCN(C6CCCC6)CC5)c(O)c4c3C2=O)NC(=O)/C(C)=C\C=C\[C@H](C)[C@H](O)[C@@H](C)[C@@H](O)[C@@H](C)[C@H](OC(C)=O)[C@@H]1C [Rifapentine] | 0.14 µM (≈ 0.123 µg/mL) | < 2.28 µM | show spectral changes under autoxidizing conditions | rapidly oxidized | at least 3 h | 
CO[C@H]1/C=C/O[C@@]2(C)Oc3c(C)c(O)c4c(O)c(c5c(nc6cc(C)ccn65)c4c3C2=O)NC(=O)/C(C)=C\C=C\[C@H](C)[C@H](O)[C@@H](C)[C@@H](O)[C@@H](C)[C@H](OC(C)=O)[C@@H]1C [Rifaximin] | 0.16 µM (≈ 0.126 µg/mL) | < 1.27 µM | did not show spectral changes under autoxidizing conditions |  |  | 
